Tests used:
[1] = system: pupil diameter; test: Pupillometry; format: in vivo, human; conditions: trial A; for Pupil diameter, predose: before first dose of segment
[2] = system: healthy participants; test: Abuse liability visual analog scales; format: in vivo, human; conditions: trial A, n = 43, 0–100 mm VAS after seventh dose, M (SD)
[3] = system: cold-induced pain; test: Cold pressor test; format: in vivo, human; conditions: trial A
[4] = system: cold-induced pain; conditions: VAS, mean [SD], cited from earlier work
[5] = cited from earlier work
[6] = achiral analyses of blood; intoxication with the labelled substance; cited from earlier work
[7] = tramadol and its metabolites; cited from earlier work
[8] = 12 participants, 5 days rifampicin, 100 mg oral tramadol; cited from earlier work
[9] = system: healthy participants; test: Drug-related adverse events
[10] = system: healthy participants; test: Respiratory rate; conditions: trial B (with paroxetine), n = 60; MPD (SD)

COc1cccc(C2(O)CCCCC2CN(C)C)c1 (centres unmarked) [Tramadol, tramadol]
pupil diameter, mean paired reduction compared with placebo ([1]; after dosing, mean (SD)): −.7 (.6) mm | Pupil diameter, after seventh dose ([1]; n = 43, M (SD)): 5.5 (1.1) mm | Pupil diameter, predose ([1]; n = 43, M (SD)): 6.1 (.9) mm | Pupil diameter, predose ([1]; n = 43, M (SD), listed as tramadol): 6.1 [.9] mm | Drug liking-disliking [2]: 48(15) mm | Strength of drug effect [2]: 32 (29) mm | Take drug again [2]: 47(18) mm | Strength of drug effect ([2]; listed as tramadol): 32 [29] mm | average duration of tolerance to pain [3]: 62 s | peak mean pain perception to cold after tramadol ([4]; after a single 50 mg dose of tramadol): 5.0 [2.3] cm | peak mean pain perception to cold before tramadol ([4]; before a single 50 mg dose of tramadol): 6.3 [2.0] cm | lethal dose [5]: > 5 g | median ingested dose in overdose with respiratory depression ([5]; in vivo): 2,500 mg | median ingested dose in overdose with no respiratory depression ([5]; range = 450−6,000 mg): 1,000 mg | mean blood M1 level in fatal intoxications [6]: 1,900 ng/mL | tramadol dose appearing in the urine [7]: > 90% | decrease of AUC by rifampicin induction [8]: 59% | Deaths ([9]; trial A): 0 (0) n (%) | Severe AEs ([9]; trial A): 0 (0) n (%) | participants reporting drug-related AEs ([9]; trial A): 49% | Dizziness ([9]; trial A, all): 5(12) n (%) | Euphoria ([9]; trial A, all): 0 (0) n (%) | Feel abnormal ([9]; trial A, all): 1 (2) n (%) | Feel hot ([9]; trial A, all): 0 (0) n (%) | Headache ([9]; trial A, all): 7(17) n (%) | Nausea ([9]; trial A, all): 5(12) n (%) | Presyncope ([9]; trial A, all): 0 (0) n (%) | Pruritus ([9]; trial A, all): 4(10) n (%) | Somnolence ([9]; trial A, all): 2 (5) n (%) | Spasticity ([9]; trial A, all): 1 (2) n (%) | Sweating ([9]; trial A, all): 0 (0) n (%) | Vomiting ([9]; trial A, all): 1 (2) n (%) | Dizziness ([9]; trial A, male): 5(12) n (%) | Euphoria ([9]; trial A, male): 0 (0) n (%) | Feel abnormal ([9]; trial A, male): 1 (2) n (%) | Feel hot ([9]; trial A, male): 0 (0) n (%) | Headache ([9]; trial A, male): 7(17) n (%) | Nausea ([9]; trial A, male): 5(12) n (%) | Presyncope ([9]; trial A, male): 0 (0) n (%) | Pruritus ([9]; trial A, male): 4(10) n (%) | Somnolence ([9]; trial A, male): 2 (5) n (%) | Spasticity ([9]; trial A, male): 1 (2) n (%) | Sweating ([9]; trial A, male): 0 (0) n (%) | Vomiting ([9]; trial A, male): 1 (2) n (%) | All drug-related AEs ([9]; trial A, n = 43 (all male)): 20 (49) n (%) | Deaths ([9]; trial B): 0 (0) n (%) | Severe AEs ([9]; trial B): 0 (0) n (%) | participants reporting drug-related AEs ([9]; trial B (with paroxetine)): 50% | All drug-related AEs ([9]; trial B (with paroxetine), n = 60): 30 (50) n (%) | Dizziness ([9]; trial B, all): 8(13) n (%) | Euphoria ([9]; trial B, all): 1 (2) n (%) | Feel abnormal ([9]; trial B, all): 2 (3) n (%) | Feel hot ([9]; trial B, all): 0 (0) n (%) | Headache ([9]; trial B, all): 6(10) n (%) | Nausea ([9]; trial B, all): 8(13) n (%) | Presyncope ([9]; trial B, all): 1 (2) n (%) | Pruritus ([9]; trial B, all): 1 (2) n (%) | Somnolence ([9]; trial B, all): 4(7) n (%) | Spasticity ([9]; trial B, all): 3 (5) n (%) | Sweating ([9]; trial B, all): 1 (2) n (%) | Vomiting ([9]; trial B, all): 2 (3) n (%) | Dizziness ([9]; trial B, female): 4(22) n (%) | Euphoria ([9]; trial B, female): 0 (0) n (%) | Feel abnormal ([9]; trial B, female): 0 (0) n (%) | Feel hot ([9]; trial B, female): 0 (0) n (%) | Headache ([9]; trial B, female): 6 (33) n (%) | Nausea ([9]; trial B, female): 2(11) n (%) | Presyncope ([9]; trial B, female): 0 (0) n (%) | Pruritus ([9]; trial B, female): 1 (6) n (%) | Somnolence ([9]; trial B, female): 2(11) n (%) | Spasticity ([9]; trial B, female): 0 (0) n (%) | Sweating ([9]; trial B, female): 0 (0) n (%) | Vomiting ([9]; trial B, female): 0 (0) n (%) | Dizziness ([9]; trial B, male): 4(10) n (%) | Euphoria ([9]; trial B, male): 1 (2) n (%) | Feel abnormal ([9]; trial B, male): 2 (5) n (%) | Feel hot ([9]; trial B, male): 0 (0) n (%) | Headache ([9]; trial B, male): 0 (0) n (%) | Nausea ([9]; trial B, male): 6(14) n (%) | Presyncope ([9]; trial B, male): 1 (2) n (%) | Pruritus ([9]; trial B, male): 0 (0) n (%) | Somnolence ([9]; trial B, male): 2 (5) n (%) | Spasticity ([9]; trial B, male): 3 (7) n (%) | Sweating ([9]; trial B, male): 1 (2) n (%) | Vomiting ([9]; trial B, male): 2 (5) n (%) | headache incidence, tramadol compared with desmetramadol AE profile ([9]; trial B, same participants): −40% | nausea incidence, tramadol compared with desmetramadol AE profile ([9]; trial B, same participants): −50% | presyncope incidence, tramadol compared with desmetramadol AE profile ([9]; trial B, same participants): −83% | pruritus incidence, tramadol compared with desmetramadol AE profile ([9]; trial B, same participants): −75% | somnolence incidence, tramadol compared with desmetramadol AE profile ([9]; trial B, same participants): −60% | vomiting incidence, tramadol compared with desmetramadol AE profile ([9]; trial B, same participants): −78% | Average postdose respiratory rate, mean paired difference versus placebo [10]: −.34 [.99] min^−1

Source: publication PMC6790288 (The journal of pain : official journal of the American Pain …, 2019)
